The values below are quoted from earlier work in patent US20100249031A1, “Nutritional Composition Comprising Curcuminoids and Methods of Manufacture” (priority 2009, published 2010).

For data set [1] the following is noted: percentage of ingested curcuminoid metabolized by the body.
A further data set deals with Microtubule Assembly. As to conditions: @ 40 μM.

On to `O=C(/C=C/c1ccc(O)cc1)CC(=O)/C=C/c1ccc(O)cc1` [BDMC, bisdemethoxycurcumin], for which, in data set [1], the “Metabolic Recovery” value is about 75%.

On to `COc1cc(/C=C/C(O)=C/C(=O)/C=C/c2ccc(O)cc2)ccc1O` [DMC, demethoxycurcumin], for which the “Metabolic Recovery” value in data set [1] was about 50%. Consider `COc1cc(/C=C/C(=O)CC(=O)/C=C/c2ccc(O)c(OC)c2)ccc1O` [Curcumin, curcumin], for which the “Inhibition of Microtubule Assembly” value in the data set with Microtubule Assembly is 50% @.
